{"source": "paper PMC8279416", "about": "“Structural Fine-Tuning of Desmuramylpeptide NOD2 Agonists Defines Their In Vivo Adjuvant Activity” (Journal of Medicinal Chemistry, 2021)", "key": {"[1]": {"system": "CD8+ T cells (OT I) cocultured with BMDCs", "assay": "BMDC antigen cross-presentation assay with ovalbumin-specific CD8+ T cells", "format": "cell-based, mouse", "settings": "ovalbumin 50 μg/mL, 72 h coculture", "method": "To evaluate the adjuvant potential of the two most-promising desmuramylpeptides, 68 and 75, in terms of their effects on DC-mediated activation of CD4^+ and CD8^+ T cells, we used an in vitro antigen-presentation assay with C57BL/6 mouse bone-marrow-derived DCs (BMDCs). Following stimulation with 68 and 75 (1 or 10 μM) in the presence of ovalbumin soluble protein (50 μg/mL), BMDCs were cocultured with carboxyfluorescein succinimidyl ester (CFSE)-labeled naive ovalbumin-specific CD4^+ or CD8^+ T cells, which were isolated from splenocytes of OT II and OT I transgenic mice, respectively. After 3 days of coculture, CD25 (α subunit of IL-2 receptor)[108] expression was determined, along with the CFSE dilution, as markers of T-cell activation and proliferation, respectively. Furthermore, we also examined how this desmuramylpeptide-induced priming of T cells affected the secreted cytokine profiles in BMDC/T-cell cocultures.\nCD4^+ and CD8^+ T cells were purified from splenocytes of OT II and OT I transgenic mice using CD4^+ and CD8^+ T cell isolation kits (Miltenyi Biotec, Germany), according to manufacturer instructions. […] Live Thy1.2^+/CD4^+ and Thy1.2^+/CD8^+ were evaluated for CFSE dilution and CD25 expression. […] Statistical significance was determined by one-way ANOVA followed by Dunnett’s multiple comparisons test."}, "NIH/OlaHsd mice": {"system": "NIH/OlaHsd mice", "assay": "In vivo ovalbumin-specific antibody response, second experiment (neutral, anionic, mannosylated liposomes)", "parameters": "species or system mouse", "settings": "for Log10 (anti-OVA IgG1/anti-OVA IgG2a): second in vivo experiment, 0.15 μmol adjuvant, one week after second booster, mean ± SEM of 5 mice", "method": "To determine whether the adjuvanticity of 75 can be modulated through changes to the liposomal formulation, a second in vivo experiment was designed in which the adjuvant activities of three different liposomal compositions were compared. Neutral liposomes were prepared from egg phosphatidylcholine and cholesterol.\nMultilamellar liposomes were prepared by the modified thin lipid film method as described previously.[130],[131] For the preparation of neutral liposomes, a 7:5 molar ratio of egg-phosphatidylcholine and cholesterol was used. For the preparation of negatively charged liposomes, a 7:5:1 molar ratio of egg-phosphatidylcholine, cholesterol, and dicetylphosphate was used, while a 7:5:0.5 molar ratio of egg-phosphatidylcholine, cholesterol, and Man-PEG-Pam was used in the preparation of mannosylated liposomes. Lipids (total lipid concentration, 4 mg/mL) were dissolved in chloroform/methanol (2:1). A methanol or chloroform/methanol solution of MDP or the desmuramylpeptides was added to the lipid solution for a final concentration of 2 mM and 1.5 mM for the first (Figure 10) and second (Figure 11) experiments, respectively. After rotary evaporation of the solvent, the remaining lipid film was dried in vacuum for 1 h and then dispersed by gentle handshaking in an ovalbumin solution in saline (0.0667 and 0.1 mg/mL for the first and second experiments, respectively). This was then left overnight at 4 °C to swell and stabilize. Liposome size was reduced by sonification. Nonentrapped material was not separated from liposomes, and the complete liposome suspension was used for immunizations.\nFor the first experiment (Figure 10), sex-matched NIH/OlaHsd mice (five per group) were immunized subcutaneously in the tail base and boosted one time after 21 days. The injection volume in all experimental groups was 0.15 mL per mouse, which corresponds to 10 μg of OVA, […], and 0.30 μmol of MDP and desmuramylpeptides. For the second experiment (Figure 11), sex-matched NIH/OlaHsd mice (five per group) were immunized and boosted two times subcutaneously into the tail base at 21-day intervals. The injection volume in all experimental groups was 0.1 mL per mouse, which corresponds to 10 μg of OVA, 400 μg of lipids, and 0.15 μmol of MDP and 75. The mice were anesthetized with ip application of ketamine/xylazine (25 mg/kg each) prior to blood collection from the axillary plexus on the seventh day after the last booster dose. Individual serum from each animal was decomplemented at 56 °C for 30 min and then stored at −20 °C until tested.\nELISA assays were performed as detailed previously.[46] Briefly, high-binding ELISA plates (Costar, U.S.A.) were coated with a 15 μg/mL solution of ovalbumin in carbonate buffer, pH 9.6, and incubated overnight at room temperature. Nonspecific antibody binding was blocked with 0.5% w/v bovine serum albumin in PBS-T (0.05% (v/v) Tween 20 in phosphate-buffered saline) for 2 h at 37 °C. After washing, five serial dilutions of mice sera and standard preparations were added in duplicate. Plates were incubated overnight at room temperature, washed, and analyzed for ovalbumin-specific IgG levels by incubation with HRP-conjugated goat anti-mouse IgG (2 h at 37 °C) and then, after washing, with 0.6 mg/mL o-phenylenediaminedihydrochloride solution in citrate-phosphate buffer, pH 5.0, with 0.5 μL of 30% H2O2 per milliliter for 30 min at room temperature in the dark. The enzymatic reaction was stopped with 12.5% H2SO4, and absorbance at 492 nm was measured using a microplate reader (Thermo Fisher Scientific, Waltham, MA, U.S.A.). For the determination of ovalbumin-specific IgG1 and IgG2a, the plates were incubated with biotin-conjugated rat anti-mouse IgG1 or IgG2a (2 h at 37 °C) and subsequently with streptavidin–peroxidase for another 2 h at 37 °C. After washing, the substrate solution was added and incubated for 30 min at room temperature in the dark, as described above. […]"}}}
{"smiles": "COc1cc(/C=C/C(=O)NCC(=O)N[C@H](C(=O)N[C@H](CCC(=O)OC2CCCC2)C(=O)OC2CCCC2)C(C)C)ccc1O", "note": "[Compound 68, Dicyclopentyl ((E)-3-(4-Hydroxy-3-methoxyphenyl)acryloyl)glycyl-L-valyl-D-glutamate]", "values": [{"measurement": "BMDC processing and cross-presentation of ovalbumin to CD8+ T cells", "setting": "[1]", "result": "significantly increased"}]}
{"smiles": "CCCCCCCCCCCCCCCCCC(=O)Oc1ccc(/C=C/C(=O)NCC(=O)N[C@H](C(=O)N[C@H](CCC(=O)OCC)C(=O)OCC)C(C)C)cc1OC", "note": "[Compound 75, Diethyl ((E)-3-(3-Methoxy-4-(stearoyloxy)phenyl)acryloyl)glycyl-L-valyl-D-glutamate]", "values": [{"measurement": "Ovalbumin-specific IgG2a response (in words)", "setting": "NIH/OlaHsd mice; mannosylated liposomes, 0.15 μmol adjuvant per dose", "result": "enhanced the production of IgG2a antibodies"}, {"measurement": "Ovalbumin-specific IgG1 response (in words)", "setting": "NIH/OlaHsd mice; negatively charged liposomes, 0.15 μmol adjuvant per dose", "result": "diminished IgG1 activity"}, {"measurement": "Ovalbumin-specific IgG levels compared to controls without adjuvant (in words)", "setting": "NIH/OlaHsd mice; regardless of the liposomal composition", "result": "increased the levels of IgG antibodies"}, {"measurement": "Log10 (anti-OVA IgG1/anti-OVA IgG2a)", "setting": "NIH/OlaHsd mice; anionic liposomes", "result": "1.84 ± 0.20"}, {"measurement": "Log10 (anti-OVA IgG1/anti-OVA IgG2a)", "setting": "NIH/OlaHsd mice; mannosylated liposomes", "result": "2.15 ± 0.17"}, {"measurement": "Log10 (anti-OVA IgG1/anti-OVA IgG2a)", "setting": "NIH/OlaHsd mice; neutral liposomes", "result": "2.27 ± 0.17"}]}
